Assays:
[1] = test system: Ai14 mice; assay: In vivo genome editing, intravenous injection, tdTomato expression; set-up: species or system mouse; settings: day 14
Description: Similar to the in vitro transfection study, lipidoid nanoparticles were prepared for mRNA or protein loading and in vivo delivery. Ai14 mice were housed in a temperature and humidity controlled facility with a 12 h light/dark cycle. Three mice in each group were injected (intravenously or intramuscularly) with Cre mRNA-loaded or (−30)GFP-Cre protein-loaded LNPs formulations. Organs including heart, liver, spleen, lung and kidney from all groups were collected at day 10 (intramuscular injection) or 14 (intravenous injection) after injection. The tissues were fixed overnight in 4% paraformaldehyde (PFA) and dehydrated in 30% sucrose before being froze in OCT and sectioned into 10-15 μm slices. The slices were then collected and stained with DAPI for fluorescence imaging (BZ-X Analyzer fluorescence microscopy).
Cre-loxP system and transgenic Ai14 mouse model were used in the in vivo genome editing study. […] When the Cre recombinase mediated gene reorganization occurs, the STOP cassette could be removed, resulting in the expression of fluorescent tdTomato reporter protein.
The OCholB LNPs was further investigated if they can induce successful gene editing in vivo through a systemic administration pathway. At first, Ai14 mice (n=3) were injected through tail vein (intravenous (IV) injection) with (−30)GFP-Cre protein loaded LNPs at day 1 and 5 (50 μg protein for each injection; 100 μg in total), then sacrificed at day 14 for analysis (FIG. 17C). […] The heart, liver, spleen, lung and kidney from each group were collected and analyzed. […] Like most intravenous nano-therapeutics, the (−30)GFP-Cre protein complexed OCholB nanoparticles injected through tail vein would travel first to the heart, and from there directly to the lung. The nanoparticle formulations (which may have complexed with serum proteins) could be easily trapped in the vasculature structures in the capillary bed of the lung, delaying or inhibiting the redistribution of LNPs to the liver, spleen and other organs. During the in vivo transport and redistribution process, some of the protein loaded LNPs may successfully enter into the cells in lung or spleen to induce the genome editing and tdTomato expression cascade. Degradation, aggregation and/or immune cells sequestration of the cargo protein and carrier LNPs would dramatically reduce or perhaps even prohibit genome editing events.
Next, in vivo systemic mRNA delivery using OCholB LNPs was tested using a similar intravenous injection protocol (FIG. 17C). Cre mRNA loaded 76-OCholB LNPs were injected at day 1 and day 5 (10 μg mRNA for each injection; 20 μg in total), and mice were sacrificed at day 14. All the major organs (heart, liver, spleen, lung and kidney) were collected and analyzed. […]

[2] = test system: B16F10 (mouse melanoma cells); assay: GFP mRNA delivery (GFP+ cells); format: cell-based; settings: LNP/mRNA=10/1, [mRNA]=0.86 μg mL^−1, 24 h
Description: (§1) To examine the delivery spectrum of the newly developed LNPs, the GFP mRNA loaded OCholB LNPs were then challenged against other four types of cell lines. B16F10 (mouse melanoma cells), HEK 293 (human embryonic kidney cells), NIH 3T3 (mouse embryonic fibroblast cells) and Jurkat (human T lymphocyte cells) cells were tested (LNP/mRNA=10/1; [mRNA]=0.86 μg mL^−1; 24 h exposure) and the results are shown in FIG. 14D. As the positive control, Lpf2k turned out to be very efficient to deliver GFP mRNA into B16F10 (63.2% of GFP^+ cells), HEK 293 (80.1%) and NIH 3T3 (70.1%) cells, while slightly less efficient to Jurkat cell (28.7%), which is usually considered to be one of the most difficult-to-transfect cell lines. […] For example, 63.0%, 60.9%, 54.1% and 50.1% of GFP^+ cells were determined from mRNA/75-OCholB treated B16F10, HEK 293, NIH 3T3 and Jurkat cells; and the numbers for mRNA/76-OCholB treated cells were 70.7%, 75.8%, 24.1% and 7.7%, respectively. It was obvious that not only the types of lipidoids, but also the target cell lines could have huge impacts on the delivery efficacy. Overall, the positive control, Lpf2k, is a relatively high-activity broad-spectrum transfection reagent; most of the OCholB LNPs (6 out of 9) are also effective broad-spectrum transfection reagents under the tested conditions. […] It was expected that through further formulation optimization, such as adding excipients (helper lipids like small molecular phospholipids (e.g. DOPE and DSPC) and macromolecules lipids (e.g. PEG-DSPE and PEG-Ceramide)) into the LNPs and/or using more controllable self-assembly procedures, improved transfection efficiency of the fully substituted OCholB LNPs could be achieved.

[3] = test system: HEK 293 (human embryonic kidney cells); assay: GFP mRNA delivery (GFP+ cells); format: cell-based; settings: LNP/mRNA=10/1, [mRNA]=0.86 μg mL^−1, 24 h
Description: as §1

[4] = test system: NIH 3T3 (mouse embryonic fibroblast cells); assay: GFP mRNA delivery (GFP+ cells); format: cell-based; settings: LNP/mRNA=10/1, [mRNA]=0.86 μg mL^−1, 24 h
Description: as §1

[5] = (−30)GFP-Cre loaded, IV day 1 and 5, 50 μg protein each
[6] = Cre mRNA loaded, IV day 1 and 5, 10 μg mRNA each

Compound | genome editing efficacy in the lung [1, 5] | GFP^+ cells [2] | GFP^+ cells [3] | GFP^+ cells [4] | genome editing efficacy in the spleen [1, 5] | tdTomato positive cells in the spleen [1, 6] | tdTomato signals in other organs (heart, liver, lung, kidney) [1, 6]
CC(C)CCCC(C)C1CCC2C3CC=C4CC(OC(=O)NCCSSCCOC(=O)CCN(CCCN(C)C)CCC(=O)OCCSSCCNC(=O)OC5CCC6(C)C(=CCC7C6CCC6(C)C(C(C)CCCC(C)C)CCC76)C5)CCC4(C)C3CCC12C (stereo not shown) [Lipidoid 80-OCholB] | Relative high genome editing efficacy |  |  |  |  |  | 
CCN(CC)CCN(CCC(=O)OCCSSCCNC(=O)OC1CCC2(C)C(=CCC3C2CCC2(C)C(C(C)CCCC(C)C)CCC32)C1)CCC(=O)OCCSSCCNC(=O)OC1CCC2(C)C(=CCC3C2CCC2(C)C(C(C)CCCC(C)C)CCC32)C1 (stereo not shown) [Lipidoid 75-OCholB] |  | 63.0% | 60.9% | 54.1% |  |  | 
CC(C)CCCC(C)C1CCC2C3CC=C4CC(OC(=O)NCCSSCCOC(=O)CCN(CCC(=O)OCCSSCCNC(=O)OC5CCC6(C)C(=CCC7C6CCC6(C)C(C(C)CCCC(C)C)CCC76)C5)CCN5CCCC5)CCC4(C)C3CCC12C (stereo not shown) [Lipidoid 76-OCholB] |  | 70.7% | 75.8% | 24.1% | Relative high genome editing efficacy | significant amount of tdTomato positive cells | positive signals were not found
